Data: paper PMC3914206

What was measured:
Assay type in all cases: binding
Conditions in all cases: Compound Concentration 10 µM
panel of 442 kinases [1] = biological target: T1, panel of 442 kinases (Homo sapiens, UniProt Q15208)
T1 construct: purchased KINOMEscan
Text: (§1) We assessed the selectivity of members of this scaffold using the KINOMEscan methodology across a near comprehensive panel of 442 kinases [[18,27]].

panel of 442 kinases [2] = biological target: T2, panel of 442 kinases (Homo sapiens, UniProt P07949)
T2 construct: purchased KINOMEscan
Text: as §1

panel of 442 kinases [3] = biological target: T3, panel of 442 kinases (Homo sapiens, UniProt P10721)
T3 construct: purchased KINOMEscan
Text: as §1

panel of 442 kinases [4] = biological target: T4, panel of 442 kinases (Homo sapiens, UniProt Q9P289)
T4 construct: purchased KINOMEscan
Text: as §1

T2 sequence (P07949 29-1114): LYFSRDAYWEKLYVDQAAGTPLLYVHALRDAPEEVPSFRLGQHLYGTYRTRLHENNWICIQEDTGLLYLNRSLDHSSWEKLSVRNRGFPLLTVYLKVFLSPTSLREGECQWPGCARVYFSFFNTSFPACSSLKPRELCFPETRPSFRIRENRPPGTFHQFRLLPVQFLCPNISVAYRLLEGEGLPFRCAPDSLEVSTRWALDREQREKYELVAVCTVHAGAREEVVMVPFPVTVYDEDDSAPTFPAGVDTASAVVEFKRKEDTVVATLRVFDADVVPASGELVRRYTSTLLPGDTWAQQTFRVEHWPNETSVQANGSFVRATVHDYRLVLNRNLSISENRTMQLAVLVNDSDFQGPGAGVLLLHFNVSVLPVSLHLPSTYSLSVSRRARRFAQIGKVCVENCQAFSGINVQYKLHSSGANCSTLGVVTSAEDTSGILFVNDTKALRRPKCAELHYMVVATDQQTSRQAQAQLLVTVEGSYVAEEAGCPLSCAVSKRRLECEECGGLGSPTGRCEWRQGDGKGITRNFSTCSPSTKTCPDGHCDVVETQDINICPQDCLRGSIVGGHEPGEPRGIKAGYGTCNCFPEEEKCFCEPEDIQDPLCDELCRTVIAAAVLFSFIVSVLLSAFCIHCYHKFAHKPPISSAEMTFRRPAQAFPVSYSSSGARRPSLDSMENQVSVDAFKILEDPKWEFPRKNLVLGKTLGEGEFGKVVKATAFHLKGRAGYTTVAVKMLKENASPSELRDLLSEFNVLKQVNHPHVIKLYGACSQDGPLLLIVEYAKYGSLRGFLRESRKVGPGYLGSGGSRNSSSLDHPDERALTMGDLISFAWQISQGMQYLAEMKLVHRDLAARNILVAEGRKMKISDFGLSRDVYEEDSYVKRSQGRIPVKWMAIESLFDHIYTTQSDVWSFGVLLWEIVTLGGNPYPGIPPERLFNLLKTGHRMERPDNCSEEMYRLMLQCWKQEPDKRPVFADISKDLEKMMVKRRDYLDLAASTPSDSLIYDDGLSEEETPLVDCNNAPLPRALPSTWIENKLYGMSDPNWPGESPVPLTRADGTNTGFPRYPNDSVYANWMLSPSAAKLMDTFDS
T4 sequence (Q9P289 whole entry): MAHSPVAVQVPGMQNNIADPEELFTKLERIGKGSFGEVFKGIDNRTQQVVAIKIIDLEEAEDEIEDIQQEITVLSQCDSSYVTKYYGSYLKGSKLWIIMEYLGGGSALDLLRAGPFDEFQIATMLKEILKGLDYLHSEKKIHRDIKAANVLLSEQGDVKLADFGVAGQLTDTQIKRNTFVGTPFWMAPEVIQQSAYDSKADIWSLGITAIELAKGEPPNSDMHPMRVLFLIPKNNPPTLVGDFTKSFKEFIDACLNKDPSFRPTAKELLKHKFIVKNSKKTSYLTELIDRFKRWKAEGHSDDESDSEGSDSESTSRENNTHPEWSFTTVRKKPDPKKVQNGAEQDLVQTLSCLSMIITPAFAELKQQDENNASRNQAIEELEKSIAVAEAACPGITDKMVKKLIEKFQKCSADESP
T1 sequence (Q15208 whole entry): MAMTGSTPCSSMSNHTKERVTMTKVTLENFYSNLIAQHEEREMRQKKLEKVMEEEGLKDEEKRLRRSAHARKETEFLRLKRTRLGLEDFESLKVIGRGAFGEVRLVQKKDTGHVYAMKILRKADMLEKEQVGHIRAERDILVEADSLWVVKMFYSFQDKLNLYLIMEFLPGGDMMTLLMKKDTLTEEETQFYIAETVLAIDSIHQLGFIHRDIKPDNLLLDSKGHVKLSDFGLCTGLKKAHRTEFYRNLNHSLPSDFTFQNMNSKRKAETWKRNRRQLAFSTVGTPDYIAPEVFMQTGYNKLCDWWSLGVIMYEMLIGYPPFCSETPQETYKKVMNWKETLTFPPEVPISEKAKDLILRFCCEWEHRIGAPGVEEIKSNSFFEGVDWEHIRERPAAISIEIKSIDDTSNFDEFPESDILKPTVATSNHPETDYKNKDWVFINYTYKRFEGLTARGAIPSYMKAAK
T3 sequence (P10721 26-976): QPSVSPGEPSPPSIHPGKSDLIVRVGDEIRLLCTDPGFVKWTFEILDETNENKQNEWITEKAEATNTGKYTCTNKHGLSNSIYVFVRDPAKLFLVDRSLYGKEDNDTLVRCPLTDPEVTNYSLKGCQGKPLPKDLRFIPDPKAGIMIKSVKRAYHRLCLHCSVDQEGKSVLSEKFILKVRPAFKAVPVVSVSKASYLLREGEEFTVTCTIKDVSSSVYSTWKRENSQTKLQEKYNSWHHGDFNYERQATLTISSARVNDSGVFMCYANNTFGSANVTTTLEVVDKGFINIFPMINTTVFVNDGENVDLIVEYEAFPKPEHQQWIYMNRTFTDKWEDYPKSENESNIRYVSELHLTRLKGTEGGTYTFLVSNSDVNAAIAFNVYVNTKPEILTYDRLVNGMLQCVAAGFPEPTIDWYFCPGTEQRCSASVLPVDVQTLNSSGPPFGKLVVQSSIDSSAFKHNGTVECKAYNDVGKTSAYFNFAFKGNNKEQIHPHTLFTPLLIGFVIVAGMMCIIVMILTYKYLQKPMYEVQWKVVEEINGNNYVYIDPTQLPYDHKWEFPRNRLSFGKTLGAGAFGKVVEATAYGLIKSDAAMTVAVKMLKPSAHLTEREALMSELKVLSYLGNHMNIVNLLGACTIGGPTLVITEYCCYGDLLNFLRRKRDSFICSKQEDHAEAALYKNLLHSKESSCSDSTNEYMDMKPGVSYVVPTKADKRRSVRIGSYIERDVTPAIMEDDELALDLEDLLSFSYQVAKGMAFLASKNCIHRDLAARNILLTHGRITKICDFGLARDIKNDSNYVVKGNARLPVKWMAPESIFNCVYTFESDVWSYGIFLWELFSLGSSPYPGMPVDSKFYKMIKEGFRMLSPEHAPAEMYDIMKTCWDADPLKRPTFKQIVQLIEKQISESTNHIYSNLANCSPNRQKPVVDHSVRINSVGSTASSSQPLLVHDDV

Compound | KINOMEscan: NDR1 (panel of 442 kinases [1]) | KINOMEscan: RET (panel of 442 kinases [2]) | KINOMEscan: KIT (panel of 442 kinases [3]) | KINOMEscan: MST4 (panel of 442 kinases [4])
COc1cc(C(=O)N2CCC(N3CCN(C)CC3)CC2)ccc1Nc1ncc2c(n1)N(C)c1ccccc1C(=O)N2C [15 (LRRK2-IN-1)] | 96 | 100 | 100 | 95
COc1cc(C(=O)N2CCC(N3CCN(C)CC3)CC2)ccc1Nc1ncc2c(n1)N(C1CCCC1)c1ccccc1C(=O)N2C [Compound 25, 11-cyclopentyl-2-((2-methoxy-4-(4-(4-methylpiperazin-1-yl)piperidine-1-carbonyl)phenyl)amino)-5-methyl-5H-benzo[e]pyrimido[5,4-b][1,4]diazepin-6(11H)-one] | 100 | 100 | 91 | 100
CCOc1cc(C(=O)N2CCC(N3CCN(C)CC3)CC2)ccc1Nc1ncc2c(n1)N(C1CCCC1)c1ccccc1C(=O)N2C [Compound 26] | 100 | 100 | 100 | 100
